This is an account of results in paper PMC12197660 (Viruses, 2025).

Converted amounts (≈) assume the structure as drawn. “And” between values parts separate entries of the source, which are not always exact repeats. Identical values can stand only once. Like-named read-outs stand apart in the source and are kept apart here.

As a reminder, the bioavailability is dose-corrected exposure relative to a reference, in per cent. By solubility is commonly meant how much of the substance goes into solution per volume. What is called logD is the decadic logarithm of the distribution of all forms, ionised or not, between an organic phase and buffer at a given pH. By Cmax is commonly meant the peak of the concentration-time curve.

Data set [1] in a line: GS-441524 plasma PK across species. As to conditions: for half-life: BALB/c (mouse), Sprague Dawley (rat), beagle (dog).
Data set [2] is described as follows: Permeability (MDCK A-to-B). The data set is classed as in vitro ADME, canine. As to conditions: dog, MDCK-MDR1, pH 7.4; A-to-B; read-out: Permeability (MDCK A-to-B).
A short description of data set [3]: Plasma stability (Table 1, across species). The format is in vitro ADME, mouse, rat, dog, monkey, and human.
Data set [4] is described as follows: Microautoradiography (MARG) of lung and trachea. On Radioactivity in Alveoli sac: key: +++: moderate levels of silver grains present; ++: low levels of silver grains present; +: background levels of silver grains present. On Radioactivity in Blood vessels: key: +++: moderate levels of silver grains present; ++: low levels of silver grains present; +: background levels of silver grains present. On Radioactivity in Bronchioles: key: +++: moderate levels of silver grains present; ++: low levels of silver grains present; +: background levels of silver grains present. On Radioactivity in Bronchus (cartilage): key: +++: moderate levels of silver grains present; ++: low levels of silver grains present; +: background levels of silver grains present. The format is in vivo, Sprague Dawley rats. Set-up: Radioactivity in Blood vessels / Radioactivity in Trachea (representative) / Radioactivity in Bronchus (cartilage) / Radioactivity in Bronchus (smooth muscle) / Radioactivity in Bronchus (epithelium) / Radioactivity in Bronchioles / Radioactivity in Alveoli wall: key: +++: moderate levels of silver grains present; ++: low levels of silver grains present; +: background levels of silver grains present. Particulars: [3H] compound, 30 min IV infusion 10 mg/kg (3700 µCi/kg), 1 h after infusion; per animal.

Data set [5] can be described thus: Radiolabeled metabolism and excretion in rats. As to conditions: for Share of radioactivity in AUC-pooled plasma: analyte after IV RDV. The format is in vivo.
In data set [6] the test system is plasma protein. In words: Plasma protein binding. The format is in vitro ADME, mouse, rat, dog, monkey, and human. As to conditions: range over mouse, rat, dog, monkey, and human.
Data set [7] can be described thus: Solubility (PBS). The format is physicochemical. As to conditions: aqueous buffer; PBS; read-out: Solubility (PBS).
For data set [8] the following is noted: human; cited from earlier work.
For data set [9] the following is noted: cynomolgus monkey; cited from earlier work.
Data set [10] in a line: Plasma and PBMC PK after IV RDV 10 mg/kg (Table 2). The format is in vivo, cynomolgus monkeys. Particulars: N = 3; for half-life: cynomolgus monkey, in vivo, iv, 10 mg/kg.
For data set [11] the following is noted: humans, cited from earlier work.
Data set [12] is described as follows: Oral ODV PK in portal-vein-cannulated monkey. The data set is classed as in vivo, cynomolgus monkey. As to conditions: for Time of plasma Cmax in both portal and systemic circulation: analyte after oral ODV 14.4 mg/kg, single monkey.
The nature of data set [13]: Intestinal (GI) S9 fraction stability. The data set is classed as in vitro ADME, rat, dog, monkey, and human. As to conditions: for S9 Stability, Intestinal: assessed in rat, dog, monkey, and human.
Data set [14] is described as follows: Hepatic S9 fraction stability. The format is in vitro ADME, rat, dog, monkey, and human. Particulars: for S9 Stability, Hepatic: assessed in rat, dog, monkey, and human.
Data set [15] has as its system OATP1B1/3, P-gp, BCRP, ENT1/2, CNT3. In words: Transporter substrate assessment. The format is in vitro ADME, human.
In data set [16] the test system is adenosine deaminase. Particulars: cited from earlier work.
The conditions of data set [17]: mean ± SD, N = 3, cited from earlier work.
Data set [18] is described as follows: LogD. The format is physicochemical.
The conditions of data set [19]: cited from earlier work.
Data set [20] is described as follows: Plasma stability, cynomolgus monkey plasma. The data set is classed as in vitro ADME. As to conditions: cynomolgus monkey plasma, 2 µM, 240 min incubation.
Data set [21] can be described thus: Plasma stability, human plasma. The data set is classed as in vitro ADME. As to conditions: human plasma, 2 µM, 240 min incubation.
The subject of data set [22] is hydrolases (CatA, CES-1/2, HINT1). Put plainly: Enzyme hydrolysis phenotype. The format is in vitro ADME.
Data set [23] can be described thus: QWBA tissue distribution of radioactivity. The format is in vivo. Particulars: oral [14C]ODV 200 mg/kg, rats.
Setting [24] is: assessed in mouse, rat, dog, monkey, and human.
Where [25] appears, read: analyte in plasma after IV RDV 10 mg/kg 30-min infusion, mean ± SD, read-out: T1/2 in plasma (converted).
Where [26] appears, read: GS-441524 IV 30 min infusion 20 mg/kg.
[27] abbreviates: ODV oral 11.6 mg/kg (9.4 mg-eq/kg).

For `N#C[C@@]1(c2ccc3c(N)ncnn23)O[C@H](CO)[C@@H](O)[C@H]1O` [GS-441524], the half-life in data set [1] (plasma, iv) was in the range of 0.7 to 3.4 h. The half-life in data set [1] (plasma, po) fell in the range of 1.4 to 4.2 h. Further, in data set [1] (IV, across species), the Volume of distribution result is given as “moderate volume of distribution” and the clearance result is reported as “low to moderate clearance”. This compound also registered a bioavailability in [1] (cynomolgus monkey, plasma, po) of about 5%. Also, the Papp A→B at 120 min in [2] turned out to be 0.16 ×10⁻⁶ cm/s. Also, the Plasma stability entry in data set [3] (setting [24]) is on record as “Stable”. For the same compound, in data set [4], the “Radioactivity in Alveoli sac” value was “++ (2×) and +”; the “Radioactivity in Alveoli wall” value is “+++”; the “Radioactivity in Blood vessels” value was “+++”; the “Radioactivity in Bronchioles” value was “+++”. For the same compound, in data set [4], the “Radioactivity in Bronchus (cartilage)” value was “++ and +++”; the “Radioactivity in Bronchus (epithelium)” value is “++ and +++”; the “Radioactivity in Bronchus (smooth muscle)” value was “++”; the “Radioactivity in Trachea (representative)” value is “++”. Besides, in data set [5] (rats), the “Share of radioactivity in AUC-pooled plasma” value is reported as “approximately 70%”. Besides, in [5] (analyte after oral ODV, rats), the “Share of total radioactivity in plasma” value is on record as over 97% and the “Share of total sample radioactivity in feces” value is listed as ~ 85%. Also, the “Plasma protein binding (% free)” value in data set [6] is 85–99 % free. Also, the solubility in [7] amounted to 26.5 µg/mL (≈ 91 µM). The Stability in plasma entry in data set [8] is on record as “stable”. Moreover, the Stability in plasma result in data set [9] was “stable”. In addition, the half-life in data set [10] (setting [25]) is 16.1 ± 4 h. Besides, in [11] (analyte after IV RDV), the “Share of total radioactivity in plasma” value was ~ 53%. Besides, in data set [11] (analyte after oral ODV), the “Share of total radioactivity in plasma” value is over 97% and the “Share of total sample radioactivity in feces” value is given as 98%. Besides, the “Time of plasma Cmax in both portal and systemic circulation” value in data set [12] came out at 1 h. Further, the “S9 Stability, Intestinal” value in data set [13] is “Stable”. The “S9 Stability, Hepatic” value in data set [14] is “Stable”. Further, the “Transporter substrate (text)” value in [15] is “substrate for P-gp”. The Transporter substrate entry in data set [15] (human) is “BCRP/P-gp ENT1/2/CNT3”. The Adenosine deaminase substrate entry in data set [16] is recorded as “weak substrate for adenosine deaminase”. Further, in [17] (setting [26]), the “Plasma GS-441524 AUC0–24h” value was 124,000 ± 11,000 nM·h and the “Plasma GS-441524 Tmax” value is listed as 0.516 ± 0.058 h. For the same compound, the logD in [18] was under 0.3. Also, the “Oral bioavailability of GS-441524, estimated” value in data set [19] (oral solution (55 °C) of GS-441524, human PK) is under 15%.

On to `C[C@H](NP(=O)(O)OC[C@H]1O[C@@](C#N)(c2ccc3c(N)ncnn23)[C@H](O)[C@@H]1O)C(=O)O` [GS-704277], for which the Plasma stability result in data set [3] (assessed in monkey and human) is given as “Stable ^d”. The “Share of radioactivity in AUC-pooled plasma” value in data set [5] (rats) is listed as about 20%. In addition, the “Plasma protein binding (% free)” value in [6] was 95–100 % free. Also, the Stability in plasma result in data set [20] and in [21] was “stable” in each case. In addition, in [10] (setting [25]), the half-life was 0.56 ± 0.01 h. The Transporter substrate result in data set [15] (human) was “OATP1B1/3”. Also, the Enzyme hydrolysis phenotype entry in data set [22] is listed as “HINT1”.

For `N#C[C@@]1(c2ccc3c(N)ncnn23)O[C@H](COP(=O)(O)OP(=O)(O)OP(=O)(O)O)[C@@H](O)[C@H]1O` [GS-443902], the “T1/2 in PBMC” value in data set [10] (analyte in PBMC after IV RDV 10 mg/kg 30-min infusion) stood at 29.4 ± 3.0 h. The half-life in data set [10] (analyte in PBMC after IV RDV 10 mg/kg 30-min infusion, read-out: T1/2 in PBMC (converted)) is 29 h.

For `N#CC1(c2ccc3c(=O)[nH]cnn23)OC(CO)C(O)C1O` (centres unmarked) [Deaminated nucleoside], the “Level in feces, fold lower than GS-441524” value in [5] (minor metabolite after oral ODV, rats and humans) is 5- to 10 fold.

On to `CC(C)C(=O)OC[C@H]1O[C@@](C#N)(c2ccc3c(N)ncnn23)[C@H](O)[C@@H]1O` [ODV, obeldesivir], for which the Papp A→B at 120 min in [2] is 1.8 ×10⁻⁶ cm/s. Further, the Plasma stability result in data set [3] (setting [24]) is listed as “Unstable (stable in dog)”. Also, in data set [5] (oral ODV, rats), the “Fecal excretion, of administered dose, mean” value is 52%; the “Total mean [14C] dose recovery” value is “greater than 90%”; the “Urinary excretion, mean” value came out at 33%. Besides, the “Plasma protein binding (% free)” value in data set [6] is listed as 56–76 % free. In data set [23], the “Persistence of radioactivity in tissues” value is “little [^14C]ODV-related radioactivity was detected after 24 h” and the “Time by which broad distribution of drug-associated radioactivity was observed” value is recorded as at most 0.25 h. Moreover, the solubility in [7] was about 1000 µg/mL (≈ 2770 µM). In addition, in data set [11] (oral ODV), the “Fecal excretion, of administered dose, mean” value was 32%; the “Total mean [14C] dose recovery” value is on record as “greater than 90%”; the “Urinary excretion, mean” value was 58%. In [12], the “Time of plasma Cmax in both portal and systemic circulation” value is 0.25 h. The “Hepatic extraction of intact ODV absorbed” value in data set [12] (portal vs systemic plasma ODV exposures, oral ODV 14.4 mg/kg) was “near complete hepatic extraction”. In addition, in [13] (PMSF-free GI S9 from cynomolgus monkeys and humans, 2 µM), the “Stability in GI S9 fractions” value is on record as “poor”. In addition, the “S9 Stability, Intestinal” value in [13] is recorded as “Unstable”. Besides, the “Stability in Hep S9 fractions” value in [14] (Hep S9 from cynomolgus monkeys and humans, 2 µM) is given as “poor”. For the same compound, the “S9 Stability, Hepatic” value in [14] is on record as “Unstable”. Also, in data set [15], the Transporter substrate result is reported as “BCRP/P-gp”; the “Transporter substrate (text)” value was “substrate for both BCRP and P-gp transporters”. In data set [17] (setting [27]), the “Plasma GS-441524 AUC0–24h” value is given as 21,600 ± 11,000 nM·h, the “Plasma GS-441524 T1/2” value is on record as 2.62 ± 0.55 h and the “Plasma GS-441524 Tmax” value was 1.67 ± 0.58 h. The peak concentration (Cmax) in data set [17] (read-out: Plasma GS-441524 Cmax, ODV oral 11.6 mg/kg (9.4 mg-eq/kg)) is 7.57 ± 6.07 µM. In data set [18], this compound gave a logD of 0.9. In addition, the Enzyme hydrolysis phenotype entry in data set [22] is given as “CES-1/2”. Moreover, the “Oral bioavailability of GS-441524, estimated” value in [19] (clinical ODV 350 mg oral tablet) was 41% to 50.
